# In US20250277001A1, “PEPTIDE DERIVATIVES AND RELATED USES AS OREXIN AGONISTS” (CENTESSA PHARMACEUTICALS (UK) LIMITED, priority 2022, published 2025):
# Like-named read-outs stand apart in the source and are kept apart here. Where a SMILES comes first, the peptide text is derived from it. Where no end group is shown, it is not given here. [ ]: non-standard residue; d: D form. The star is where a group is joined. Malonyl(2,2-Me2,histaminyl) = CC(C)(C(=O)NCCc1cnc[nH]1)C(=O)*; d(hArg) = N=C(N)NCCCC[C@@H](N)C(=O)O; Gly(NCH2CH2Ph) = O=C(O)CNCCc1ccccc1; Hyp = O=C(O)[C@@H]1C[C@@H](O)CN1; hArg = N=C(N)NCCCC[C@H](N)C(=O)O; NMeN = CN[C@@H](CC(N)=O)C(=O)O; Aoc(2) = CCCCCC[C@H](N)C(=O)O; Phg = N[C@H](C(=O)O)c1ccccc1; Nle = CCCC[C@H](N)C(=O)O
# Experiments:
# mice = conditions: cited from earlier work
# [1] = molecular target: T1, human orexin type 1 receptor (hOX1R) (Homo sapiens, UniProt O43613); experiment: Measurement of orexin type 1 receptor agonist activity (CHO cells, FLIPR TETRA intracellular Ca2+); format: cell-based
# T1 construct: expressed in transfected cells
# T1 sequence (O43613 1-425): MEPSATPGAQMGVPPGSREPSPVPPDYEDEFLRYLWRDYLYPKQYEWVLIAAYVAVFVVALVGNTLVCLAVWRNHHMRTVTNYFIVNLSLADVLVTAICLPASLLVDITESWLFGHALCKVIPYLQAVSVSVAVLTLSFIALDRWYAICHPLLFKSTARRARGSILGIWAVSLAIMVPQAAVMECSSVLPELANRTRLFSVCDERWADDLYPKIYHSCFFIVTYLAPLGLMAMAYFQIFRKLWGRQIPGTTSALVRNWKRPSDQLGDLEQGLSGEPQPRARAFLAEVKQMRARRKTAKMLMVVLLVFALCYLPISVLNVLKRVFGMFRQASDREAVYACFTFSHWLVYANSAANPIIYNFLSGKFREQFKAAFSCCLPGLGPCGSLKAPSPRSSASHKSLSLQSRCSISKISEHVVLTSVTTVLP
# Text: (§1) In some embodiments, the assay uses cells stably expressing either human orexin type 2 or human orexin type 1 receptor. In some embodiments, the cells are obtained by inserting the Orexin receptor cDNA into pcDNA3.1(+) plasmid vector, identifying clones by G418 drug resistance selection, and/or growing a single clone for OX2R-CHO and OX1R-CHO in bulk. In some embodiments, the assay is detected using Fluorescent Imaging Plate Reader TETRA (FLIPR TETRA: manufactured by Molecular Devices). In some embodiments, the agonist activity of the test peptide is calculated assuming that the fluorescence value of the well containing only the dilution buffer is 0% and the fluorescence value of the well containing 10 nM human orexin A (Tocris) buffer is 100%.
# (§2) Stable cell line generation. Obtainment of cells stably expressing either human orexin type 2 or human orexin type 1 receptor: to obtain a stable cell line the Orexin receptor cDNA was inserted into pcDNA3.1(+) plasmid vector and clones identified by G418 drug resistance selection. […] A single clone for OX2R-CHO and OX1R-CHO were grown in bulk and frozen to generate a cell bank for routine screening.
# (§3) Measurement of orexin type 1 receptor agonist activity. Chinese hamster ovary (CHO) cells expressing human orexin type 1 receptor (hOX1R) were seeded in each well of 384 well black clear bottom plates (BD Flacon) at 10,000 cells per well and cultured for 24 h in an Ham's F12 (Gibco) medium containing 10% fetal calf serum (Sigma Aldrich) under the conditions of 37° C., 5% CO2. After removal of the medium, 50 μL of assay buffer 1 (0.1% bovine serum albumin (Sigma Aldrich), 20 mM HEPES (Molecular Dimensions), […] probenecid (Sigma Aldrich), 1× Calcium 5 dye (Molecular Devices) in Hank's balanced salt solution (Invitrogen)) was added, and the cells were incubated for 60 min under the conditions of 37° C., 5% CO2. A test peptide was dissolved in dimethyl sulfoxide (Sigma Aldrich) to 1 mM, and then diluted with assay buffer 2 (20 mM HEPES, Hank's balanced salt solution, 0.1% bovine serum albumin). For the reaction, a test peptide solution (10 μl) was added using Fluorescent Imaging Plate Reader TETRA (FLIPR TETRA: manufactured by Molecular Devices), a fluorescence value (excitation wavelength 488 nm, measurement wavelength 570 nm) of each well was measured every one second for 2 min, and the agonist activity was determined using the area of the fluorescence value as an indicator of intracellular Ca^2+ concentration. The agonist activity of the test peptide was calculated assuming that the fluorescence value of the well added with only the dilution buffer was 0% and the fluorescence value of the well added with 10 nM human orexin A (Tocris) buffer was 100%. As used herein, Emax indicates the value at 1 μM concentration when orexin A is converted to a full agonist (maximum value of agonist activity: 100%).
# [2] = molecular target: T2, human orexin type 2 receptor (hOX2R) (Homo sapiens, UniProt O43614); experiment: Measurement of orexin type 2 receptor agonist activity (CHO cells, FLIPR TETRA intracellular Ca2+); format: cell-based
# T2 construct: expressed in transfected cells
# T2 sequence (O43614 1-444): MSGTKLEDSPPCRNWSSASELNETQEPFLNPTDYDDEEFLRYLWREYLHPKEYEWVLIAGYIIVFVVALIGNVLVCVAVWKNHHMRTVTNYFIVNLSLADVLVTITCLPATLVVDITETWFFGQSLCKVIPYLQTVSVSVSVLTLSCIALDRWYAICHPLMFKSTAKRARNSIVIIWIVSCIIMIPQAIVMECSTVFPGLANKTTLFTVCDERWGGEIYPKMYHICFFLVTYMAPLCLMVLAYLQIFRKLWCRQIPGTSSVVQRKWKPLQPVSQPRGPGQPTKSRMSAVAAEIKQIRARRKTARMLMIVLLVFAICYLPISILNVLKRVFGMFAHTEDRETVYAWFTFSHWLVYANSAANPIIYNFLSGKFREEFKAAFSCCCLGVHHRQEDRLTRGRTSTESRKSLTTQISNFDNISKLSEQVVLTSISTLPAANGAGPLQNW
# Text: as §1, §2
# as §3, with “type 2” for “type 1”, “receptor (hOX2R)” for “receptor (hOX1R) were”
# individuals with NT1 = conditions: initial clinical studies; cited from earlier work
# [3] = intracerebroventricular (ICV), orexin-neuron ablated mice
# [4] = CHO cells expressing hOX1R, Ca2+ fluorescence, read-out: hOX1 pEC50 (converted)
# [5] = CHO cells expressing hOX2R, Ca2+ fluorescence, read-out: hOX2 pEC50 (converted)
molecule,measurement,setting,value
COc1ccc(-c2cccc(C(=O)N(C)C)c2)cc1S(=O)(=O)Nc1cccc(NCCNC(=O)c2ccccc2N(C)C)c1 [YNT-185],sleep-onset REM periods and cataplexy-like events,mice; NT1 mouse model,decreases
same,wakefulness,"mice; intraperitoneally or ICV, wild type (WT) and orexin ligand-deficient mice",modestly increases
"orexin A (QPLPDCCRQKTCSCRLYELLHGAGNHAAGILTL; ends and bridges not checked; cysteine pairing not given here; UniProt O43612 34-66, looked up) [orexin neuropeptide, also known as hypocretin-1]",cataplexy-like behavior,mice; [3],decreases
same,time spent awake,mice; [3],increase
CCCCCC[C@H](NC(=O)[C@@H](NC(=O)[C@H](CC(C)C)NC(=O)[C@@H](NC(=O)CNC(=O)[C@@H](NC(=O)[C@H](C)NC(=O)[C@@H]1C[C@@H](O)CN1C(=O)[C@H](CC(N)=O)N(C)C(=O)CN(CCc1ccccc1)C(=O)[C@H](CCCNC(=N)N)NC(=O)[C@H](CCCNC(=N)N)NC(=O)[C@@H]1C[C@@H](O)CN1C(=O)[C@@H]1C[C@@H](O)CN1C(=O)[C@@H]1C[C@@H](O)CN1)c1ccccc1)[C@@H](C)CC)[C@@H](C)O)C(N)=O [compound 16] (H-[Hyp][Hyp][Hyp]RR[Gly(NCH2CH2Ph)][NMeN][Hyp]A[Phg]GILT[Aoc(2)]-NH2),EC50,[1]; [4],> 10 nM
same,EC50,[2]; [5],< 0.1 nM
CCCC[C@H](NC(=O)[C@@H](NC(=O)[C@H](CC(C)C)NC(=O)[C@@H](NC(=O)CNC(=O)[C@@H](NC(=O)[C@H](C)NC(=O)[C@H](Cc1c[nH]cn1)NC(=O)[C@H](CC(N)=O)NC(=O)CNC(=O)[C@H](CO)NC(=O)[C@H](C)NC(=O)[C@H](Cc1c[nH]c2ccccc12)NC(=O)[C@@H](CC(C)C)NC(=O)[C@@H](N)Cc1ccccc1)c1ccccc1)[C@@H](C)CC)[C@@H](C)O)C(N)=O [compound 10] (H-F[dL]WASGNHA[Phg]GILT[Nle]-NH2),EC50,[1]; [4],> 10 nM
same,EC50,[2]; [5],< 0.1 nM
"CCCCCC[C@H](NC(=O)[C@@H](NC(=O)[C@H](CC(C)C)NC(=O)[C@@H](NC(=O)CNC(=O)[C@@H](NC(=O)[C@H](C)NC(=O)[C@@H]1C[C@@H](O)CN1C(=O)[C@H](CC(N)=O)N(C)C(=O)CN(CCc1ccccc1)C(=O)[C@H](CCCNC(=N)N)NC(=O)[C@H](CCCNC(=N)N)NC(=O)[C@@H]1CCCN1C(=O)[C@H](CCCCNC(=N)N)NC(=O)[C@@H](CCC(N)=O)NC(=O)C(C)(C)C(=O)NCCc1cnc[nH]1)c1ccccc1)[C@@H](C)CC)[C@@H](C)O)C(N)=O [compound 19] ({Malonyl(2,2-Me2,histaminyl)}-[dQ][hArg]PRR[Gly(NCH2CH2Ph)][NMeN][Hyp]A[Phg]GILT[Aoc(2)]-NH2)",EC50,[1],> 10 nM
same,EC50,[2],< 0.1 nM
COC(=O)N1CCC[C@H](NS(C)(=O)=O)[C@@H]1CO[C@H]1CC[C@@H](c2ccccc2)CC1 [TAK-925],wakefulness,"mice; subcutaneous, OX2R-knockout mice",not
same,wakefulness,"mice; subcutaneous, WT mice",modestly increased
same,cataplexy,individuals with NT1,trends for decreasing cataplexy
same,wakefulness,individuals with NT1,substantial levels of increased wakefulness
"CCCCCC[C@H](NC(=O)[C@@H](NC(=O)[C@H](CC(C)C)NC(=O)[C@@H](NC(=O)CNC(=O)[C@@H](NC(=O)[C@H](C)NC(=O)[C@@H]1C[C@@H](O)CN1C(=O)[C@H](CC(N)=O)N(C)C(=O)CN(CCc1ccccc1)C(=O)[C@H](CCCNC(=N)N)NC(=O)[C@@H]1CCCN1C(=O)[C@H](CCCCNC(=N)N)NC(=O)[C@H](CCC(N)=O)NC(=O)C(C)(C)C(=O)NCCc1cnc[nH]1)c1ccccc1)[C@@H](C)CC)[C@@H](C)O)C(N)=O [compound 3] ({Malonyl(2,2-Me2,histaminyl)}-Q[hArg]PR[Gly(NCH2CH2Ph)][NMeN][Hyp]A[Phg]GILT[Aoc(2)]-NH2)",EC50,[1],> 10 nM
same,EC50,[2],< 0.1 nM
"CCCCCC[C@H](NC(=O)[C@@H](NC(=O)[C@H](CC(C)C)NC(=O)[C@@H](NC(=O)CNC(=O)[C@@H](NC(=O)[C@H](C)NC(=O)[C@@H]1C[C@@H](O)CN1C(=O)[C@H](CC(N)=O)N(C)C(=O)CN(CCc1ccccc1)C(=O)[C@H](CCCNC(=N)N)NC(=O)[C@H](CCCNC(=N)N)NC(=O)[C@H]1CCCN1C(=O)[C@@H](CCCCNC(=N)N)NC(=O)[C@@H](CCC(N)=O)NC(=O)C(C)(C)C(=O)NCCc1cnc[nH]1)c1ccccc1)[C@@H](C)CC)[C@@H](C)O)C(N)=O [compound 18] ({Malonyl(2,2-Me2,histaminyl)}-[dQ][d(hArg)][dP]RR[Gly(NCH2CH2Ph)][NMeN][Hyp]A[Phg]GILT[Aoc(2)]-NH2)",EC50,[1],> 10 nM
same,EC50,[2],< 0.1 nM
